Data: US8088806B2 (Achillion Pharmaceuticals, Inc., priority 2005, dated 2012)

Each molecule was assayed on HCV replicon (assay: Replicon based assay of HCV replication inhibition (NPT ELISA)). Settings: Hepatitis C virus, Huh-7, 72 h, Table III; Huh-7 HCV replicon-containing cells, three days; read-out: Activity.
Assay type: cell-based, Hepatitis C virus
Procedure, shortened: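 Huh-7 cells carrying a bicistronic HCV replicon (neo, EMCV-IRES-driven NS3–NS5B) treated overnight after seeding with usually 6 concentrations, 10 to 0.03 micromolar, for three days at 37° C without G418. Replication read as NPT level by captured ELISA; matched-DMSO wells and interferon alpha as controls.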
CCCCCCCCN(C)c1ccc(Nc2nc(-c3sc(-c4cnccn4)nc3C)cs2)cc1C(F)(F)F [compound 578, 2-(trifluoromethyl)-N^1-methyl-N^4-(4-(4-methyl-2-(pyrazin-2-yl)thiazol-5-yl)thiazol-2-yl)-N^1-octylbenzene-1,4-diamine] was tested, and the EC50 was 1000 to 10000 nM. In the case of CCCCCCCCN(C)c1ccc(Nc2nc(-c3ccc(Cl)cc3)cs2)cc1C(F)(F)F [compound 579, N^4-(4-(4-chlorophenyl)thiazol-2-yl)-2-(trifluoromethyl)-N^1-methyl-N^1-octylbenzene-1,4-diamine], the EC50 is reported as < 1000 nM. CCCCCCCCOc1ccc(Nc2nc(-c3ccc(F)cc3)cs2)cc1C(F)(F)F [compound 580, N-(3-(trifluoromethyl)-4-(octyloxy)phenyl)-4-(4-fluorophenyl)thiazol-2-amine] was tested, and the EC50 was < 1000 nM. In the case of CCCCCCCCOc1ccc(Nc2nc(-c3ccc(O)c(C(N)=O)c3)cs2)cc1C(F)(F)F [compound 581, 5-(2-(3-(trifluoromethyl)-4-(octyloxy)phenylamino)thiazol-4-yl)-2-hydroxybenzamide], the EC50 is reported as < 1000 nM. For CCCCCCCCOc1ccc(Nc2nc(-c3ccc(Cl)s3)cs2)cc1C(F)(F)F [compound 582, 4-(5-chlorothiophen-2-yl)-N-(3-(trifluoromethyl)-4-(octyloxy)phenyl)thiazol-2-amine], the EC50 was < 1000 nM. For CCCCCCCCOc1ccc(Nc2nc(-c3ccc(O)c(O)c3)cs2)cc1C(F)(F)F [compound 583, 4-(2-(3-(trifluoromethyl)-4-(octyloxy)phenylamino)thiazol-4-yl)benzene-1,2-diol], the EC50 was < 1000 nM. In the case of CCCCCCCCOc1ccc(Nc2nc(-c3ccc4c(c3)NC(=O)CO4)cs2)cc1C(F)(F)F [compound 584, 6-(2-(3-(trifluoromethyl)-4-(octyloxy)phenylamino)thiazol-4-yl)-2H-benzo[b][1,4]oxazin-3(4H)-one], the EC50 is reported as < 1000 nM. For CCCCCCCCOc1ccc(Nc2nc(-c3ccc4[nH]c(=O)oc4c3)cs2)cc1C(F)(F)F [compound 585, 6-(2-(3-(trifluoromethyl)-4-(octyloxy)phenylamino)thiazol-4-yl)benzo[d]oxazol-2(3H)-one], the EC50 was < 1000 nM. For CCCCCCCCOc1ccc(Nc2nc(-c3ccc(OCC(=O)O)cc3)c(C)s2)cc1C(F)(F)F [compound 586, 2-(4-(2-(3-(trifluoromethyl)-4-(octyloxy)phenylamino)-5-methylthiazol-4-yl)phenoxy)acetic acid], the EC50 was < 1000 nM. With CCCCCCCCOc1ccc(Nc2nc(-c3ccccn3)cs2)cc1C(F)(F)F [compound 587, N-(3-(trifluoromethyl)-4-(octyloxy)phenyl)-4-(pyridin-2-yl)thiazol-2-amine] the EC50 was < 1000 nM. CCCCCCCCOc1ccc(Nc2nc(-c3ccc(-c4ccccn4)s3)cs2)cc1C(F)(F)F [compound 588, N-(3-(trifluoromethyl)-4-(octyloxy)phenyl)-4-(5-(pyridin-2-yl)thiophen-2-yl)thiazol-2-amine] was tested, and the EC50 was < 1000 nM. With CCCCCCCCOc1ccc(Nc2nc(-c3cc4ccccc4o3)cs2)cc1C(F)(F)F [compound 589, 4-(benzofuran-2-yl)-N-(3-(trifluoromethyl)-4-(octyloxy)phenyl)thiazol-2-amine] the EC50 was < 1000 nM. With CCCCCCCCOc1ccc(Nc2nc(-c3sc(-c4cnccn4)nc3C)cs2)cc1C(F)(F)F [compound 590, N-(3-(trifluoromethyl)-4-(octyloxy)phenyl)-4-(4-methyl-2-(pyrazin-2-yl)thiazol-5-yl)thiazol-2-amine] the EC50 was < 1000 nM. In the case of CCCCCCCCOc1ccc(Nc2nc(-c3ccc(Cl)cc3)cs2)cc1C(F)(F)F [compound 591, 4-(4-chlorophenyl)-N-(3-(trifluoromethyl)-4-(octyloxy)phenyl)thiazol-2-amine], the EC50 is reported as < 1000 nM. For CCCCCOc1ccc(Nc2nc3c(s2)CCc2ccncc2-3)cc1C(F)(F)F [compound 592, N-(3-(trifluoromethyl)-4-(pentyloxy)phenyl)-4,5-dihydrothiazolo[5,4-h]isoquinolin-2-amine], the EC50 was < 1000 nM. For CCCCCCCCOc1ccc(Nc2nc3c(s2)CCc2ccncc2-3)cc1 [compound 593, 4,5-dihydro-N-(4-(octyloxy)phenyl)thiazolo[5,4-h]isoquinolin-2-amine], the EC50 was < 1000 nM. In the case of CCCCCOc1ccc(Nc2nc3c(s2)CCc2ncccc2-3)cc1C(F)(F)F [compound 594], the EC50 is reported as < 1000 nM. CCCCCCCCOc1ccc(Nc2nc3c(s2)CCc2ncccc2-3)cc1 [compound 595, 4,5-dihydro-N-(4-(octyloxy)phenyl)thiazolo[4,5-f]quinolin-2-amine] was tested, and the EC50 was 1000 to 10000 nM. In the case of CCCCCCCCOc1ccc(Nc2nc(-c3cnccn3)cs2)cc1C(F)(F)F [compound 596, N-(3-(trifluoromethyl)-4-(octyloxy)phenyl)-4-(pyrazin-2-yl)thiazol-2-amine], the EC50 is reported as < 1000 nM. For CCCC(CCC)Oc1ccc(Nc2nc(-c3cnccn3)cs2)cc1C(F)(F)F [compound 597, N-(3-(trifluoromethyl)-4-(heptan-4-yloxy)phenyl)-4-(pyrazin-2-yl)thiazol-2-amine], the EC50 was < 1000 nM. In the case of CCCCCCCCOc1ccc(Nc2nc(-c3cnccn3)cs2)cc1 [compound 598, N-(4-(octyloxy)phenyl)-4-(pyrazin-2-yl)thiazol-2-amine], the EC50 is reported as < 1000 nM. With CCCCCOc1ccc(Nc2nc(/C=C/c3ccc(F)c(F)c3)cs2)cc1C(F)(F)F [compound 599, 4-(3,4-difluorostyryl)-N-(3-(trifluoromethyl)-4-(pentyloxy)phenyl)thiazol-2-amine] the EC50 was < 1000 nM. CCCCCOc1ccc(Nc2nc(/C=C/c3ccc(OC)cc3)cs2)cc1C(F)(F)F [compound 600, 4-(4-methoxystyryl)-N-(3-(trifluoromethyl)-4-(pentyloxy)phenyl)thiazol-2-amine] was tested, and the EC50 was < 1000 nM. CCCCCOc1ccc(Nc2nc(/C=C/c3ccc(Cl)cc3)cs2)cc1C(F)(F)F [compound 601, 4-(4-chlorostyryl)-N-(3-(trifluoromethyl)-4-(pentyloxy)phenyl)thiazol-2-amine] was tested, and the EC50 was < 1000 nM. With CCCCCCCOc1ccc(C(=O)Nc2nc(-c3cccnc3)cs2)cc1 [compound 602, 4-(heptyloxy)-N-(4-(pyridin-3-yl)thiazol-2-yl)benzamide] the EC50 was > 10000 nM. CCCCCOc1ccc(Nc2nc(-c3cncc(C(=O)OCC)c3)cs2)cc1C(F)(F)F [compound 603, ethyl 5-(2-(3-(trifluoromethyl)-4-(pentyloxy)phenylamino)thiazol-4-yl)pyridine-3-carboxylate] gave an EC50 of 1000 to 10000 nM. For CCCCCCCCOc1ccc(Nc2nccs2)cc1C(F)(F)F [compound 605, N-(3-(trifluoromethyl)-4-(octyloxy)phenyl)thiazol-2-amine], the EC50 was < 1000 nM. FC(F)(F)c1cc(Nc2nc(-c3cnccn3)cs2)ccc1OC1CCCC1 [compound 606, N-(4-(cyclopentyloxy)-3-(trifluoromethyl)phenyl)-4-(pyrazin-2-yl)thiazol-2-amine] was tested, and the EC50 was < 1000 nM. With CCCCCOc1ccc(Nc2nc(Cc3ccc(F)c(F)c3)cs2)cc1C(F)(F)F [compound 607, 4-(3,4-difluorobenzyl)-N-(3-(trifluoromethyl)-4-(pentyloxy)phenyl)thiazol-2-amine] the EC50 was 1000 to 10000 nM. For CCCCCCCCOc1ccc(Nc2nc(Cc3ccc(F)c(F)c3)cs2)cc1 [compound 608, 4-(3,4-difluorobenzyl)-N-(4-(octyloxy)phenyl)thiazol-2-amine], the EC50 was > 10000 nM. Molecule CCCCCCCCOc1ccc(Nc2nc(Cc3ccc(F)c(F)c3)cs2)cc1C(F)(F)F [compound 609, 4-(3,4-difluorobenzyl)-N-(3-(trifluoromethyl)-4-(octyloxy)phenyl)thiazol-2-amine] has an EC50 of 1000 to 10000 nM. CCCCCOc1ccc(Nc2nc(Cc3ccc(F)c(F)c3)cs2)cc1F [compound 610, 4-(3,4-difluorobenzyl)-N-(3-fluoro-4-(pentyloxy)phenyl)thiazol-2-amine] was tested, and the EC50 was > 10000 nM. CCCCCN(C)c1ccc(Nc2nc(Cc3ccc(F)c(F)c3)cs2)cc1C(F)(F)F [compound 611, N^4-(4-(3,4-difluorobenzyl)thiazol-2-yl)-2-(trifluoromethyl)-N^1-methyl-N^1-pentylbenzene-1,4-diamine] was tested, and the EC50 was > 10000 nM. For CCCCCCCCN(C)c1ccc(Nc2nc(Cc3ccc(F)c(F)c3)cs2)cc1 [compound 612, N^1-(4-(3,4-difluorobenzyl)thiazol-2-yl)-N^4-methyl-N^4-octylbenzene-1,4-diamine], the EC50 was > 10000 nM. For CCCCCCCCOc1ccc(Nc2nc(-c3ccc(C#N)nc3)cs2)cc1C(F)(F)F [compound 613, 5-(2-(3-(trifluoromethyl)-4-(octyloxy)phenylamino)thiazol-4-yl)pyridine-2-carbonitrile], the EC50 was < 1000 nM. For N#Cc1ccc(-c2csc(Nc3ccc(OCCCC4CCCC4)c(C(F)(F)F)c3)n2)cn1 [compound 614], the EC50 was < 1000 nM. In the case of CCCCCOc1ccc(Nc2nc(-c3ccc(C#N)nc3)cs2)cc1F [compound 615, 5-(2-(3-fluoro-4-(pentyloxy)phenylamino)thiazol-4-yl)pyridine-2-carbonitrile], the EC50 is reported as < 1000 nM. With N#Cc1ccc(-c2csc(Nc3ccc(OC4CCCC4)c(C(F)(F)F)c3)n2)cn1 [compound 616, 5-(2-(4-(cyclopentyloxy)-3-(trifluoromethyl)phenylamino)thiazol-4-yl)pyridine-2-carbonitrile] the EC50 was < 1000 nM. In the case of CCCCCCCCOc1ccc(Nc2nc(-c3cncnc3)cs2)cc1C(F)(F)F [compound 617, N-(3-(trifluoromethyl)-4-(octyloxy)phenyl)-4-(pyrimidin-5-yl)thiazol-2-amine], the EC50 is reported as < 1000 nM. In the case of CCCCCOc1ccc(Nc2nc(-c3cncnc3)cs2)cc1F [compound 618, N-(3-fluoro-4-(pentyloxy)phenyl)-4-(pyrimidin-5-yl)thiazol-2-amine], the EC50 is reported as < 1000 nM. CCCCCCCCOc1ccc(Nc2nc(-c3cnc(Cl)nc3)cs2)cc1 [compound 619, 4-(2-chloropyrimidin-5-yl)-N-(4-(octyloxy)phenyl)thiazol-2-amine] was tested, and the EC50 was < 1000 nM. CCCCCCCCOc1ccc(Nc2nc(-c3cnc(Cl)nc3)cs2)cc1C(F)(F)F [compound 620, 4-(2-chloropyrimidin-5-yl)-N-(3-(trifluoromethyl)-4-(octyloxy)phenyl)thiazol-2-amine] was tested, and the EC50 was < 1000 nM.
